Test results reported in patent US20250163076A1, “SYNTHESIS OF BRUTON'S TYROSINE KINASE INHIBITORS” (JANSSEN PHARMACEUTICA NV, priority 2022, published 2025).
≈ marks a conversion by molar mass, not a printed value. Read-outs that look alike come from different tables or passages of the source. Marks after values point to notes of the source that are not given here.

Assay: Solubility of P and M forms in solvent systems and their water mixtures
Format: physicochemical
Description: Moreover, this solubility difference can be tuned by changing the ratio between 1-propanol/water. Therefore, M form can be efficiently converted even starting from a 1:1 d.r. mixture.

C=CC(=O)N[C@H]1CCC[C@H]1NC(=O)c1sc2nccc3c2c1NC(=O)N3c1cnc(CC(C)C)cc1C (single isomer, unassigned) [P form]
Solubility (1-Butanol/water (~6/94 w/w %), 10° C.): 0.01 mg/mL (≈ 0.0193 mM)
Solubility (1-Butanol/water (~6/94 w/w %), 25° C.): 0.01 mg/mL (≈ 0.0193 mM)
Solubility (1-Butanol/water (~6/94 w/w %), 50° C.): immiscible
Solubility (1-Butanol/water (~80/20 w/w %), 10° C.): 18.2 mg/mL (≈ 35.1 mM)
Solubility (1-Butanol/water (~80/20 w/w %), 25° C.): 20.7 mg/mL (≈ 39.9 mM)
Solubility (1-Butanol/water (~80/20 w/w %), 50° C.): immiscible
Solubility (1-Butanol, 10° C.): 137.3 mg/mL (≈ 265 mM)
Solubility (1-Butanol, 25° C.): 132.8 mg/mL (≈ 256 mM)
Solubility (1-Butanol, 50° C.): 197.6 mg/mL (≈ 381 mM)
Solubility (1-Propanol/water (20/80 w/w %), 25° C.): 0.4 mg/mL (≈ 0.771 mM)
Solubility (1-Propanol/water (20/80 w/w %), 50° C.): 0.5 mg/mL (≈ 0.964 mM)
Solubility (1-Propanol/water (33/67 w/w %), 10 °C, aqueous with cosolvent or surfactant or cyclodextrin, thermodynamic from solid, 1-Propanol/water (33/67 w/w %), 10° C., read-out: Solubility): 2.2 mg/mL (≈ 4.24 mM)
Solubility (1-Propanol/water (33/67 w/w %), 25° C.): 1.9 mg/mL (≈ 3.66 mM)
Solubility (1-Propanol/water (33/67 w/w %), 50° C.): 1.8 mg/mL (≈ 3.47 mM)
Solubility (1-Propanol/water (50/50 w/w %), 25° C.): 8.5 mg/mL (≈ 16.4 mM)
Solubility (1-Propanol/water (50/50 w/w %), 50° C.): 15.6* mg/mL
Solubility (1-Propanol/water (67/33 w/w %), 10° C.): 18.0 mg/mL (≈ 34.7 mM)
Solubility (1-Propanol/water (67/33 w/w %), 25° C.): 20.8 mg/mL (≈ 40.1 mM)
Solubility (1-Propanol/water (67/33 w/w %), 50° C.): 20.3* mg/mL
Solubility (1-Propanol/water (80/20 w/w %), 10° C.): 24.8 mg/mL (≈ 47.8 mM)
Solubility (1-Propanol/water (80/20 w/w %), 25° C.): 26.3 mg/mL (≈ 50.7 mM)
Solubility (1-Propanol/water (80/20 w/w %), 50° C.): 32.3* mg/mL
Solubility (1-Propanol, 10° C.): 206.8 mg/mL (≈ 399 mM)
Solubility (1-propanol, 25 °C, organic solvent or mixture, 1-Propanol, 25° C., read-out: Solubility): 197 mg/mL (≈ 380 mM)
Solubility (1-propanol, 50 °C, organic solvent or mixture, 1-Propanol, 50° C., read-out: Solubility): 255 mg/mL (≈ 492 mM)
Solubility (1-propanol/water (50/50 w/w %), 10 °C, aqueous with cosolvent or surfactant or cyclodextrin, thermodynamic from solid, 1-Propanol/water (50/50 w/w %), 10° C., read-out: Solubility): 8.1 mg/mL (≈ 15.6 mM)
Solubility (2-butanol/water (~17/83 w/w %), 50 °C, aqueous with cosolvent or surfactant or cyclodextrin, 2-butanol/water (~17/83 w/w %), 50° C., read-out: Solubility): 0.2 mg/mL (≈ 0.386 mM)
Solubility (2-butanol/water (~17/83 w/w %), 10° C.): 0.5 mg/mL (≈ 0.964 mM)
Solubility (2-butanol/water (~17/83 w/w %), 25° C.): 0.3 mg/mL (≈ 0.578 mM)
Solubility (Isobutanol, 10° C.): 105.8 mg/mL (≈ 204 mM)
Solubility (Isobutanol, 25° C.): 102.2 mg/mL (≈ 197 mM)
Solubility (Isobutanol, 50° C.): 134.3 mg/mL (≈ 259 mM)
Solubility (Isopropanol/water (~16/84 w/w %), 10° C.): 0.1 mg/mL (≈ 0.193 mM)
Solubility (Isopropanol/water (~16/84 w/w %), 25° C.): 0.2 mg/mL (≈ 0.386 mM)
Solubility (Isopropanol/water (~16/84 w/w %), 50° C.): 0.3 mg/mL (≈ 0.578 mM)
Solubility (Isopropanol/water (~28/72 w/w %), 10° C.): 0.4 mg/mL (≈ 0.771 mM)
Solubility (Isopropanol/water (~28/72 w/w %), 25° C.): 0.7 mg/mL (≈ 1.35 mM)
Solubility (Isopropanol/water (~28/72 w/w %), 50° C.): 1.1 mg/mL (≈ 2.12 mM)
Solubility (Isopropanol/water (~44/56 w/w %), 10° C.): 2.0 mg/mL (≈ 3.86 mM)
Solubility (Isopropanol/water (~44/56 w/w %), 25° C.): 3.0 mg/mL (≈ 5.78 mM)
Solubility (Isopropanol/water (~44/56 w/w %), 50° C.): 2.0 mg/mL (≈ 3.86 mM)
Solubility (Isopropanol/water (~61/39 w/w %), 10° C.): 4.0 mg/mL (≈ 7.71 mM)
Solubility (Isopropanol/water (~61/39 w/w %), 25° C.): 6.0 mg/mL (≈ 11.6 mM)
Solubility (Isopropanol/water (~61/39 w/w %), 50° C.): 4.0 mg/mL (≈ 7.71 mM)
Solubility (Propylene carbonate/water (93/7 w/w %), 10° C.): 10.9 mg/mL (≈ 21 mM)
Solubility (Propylene carbonate/water (93/7 w/w %), 25° C.): 9.0 mg/mL (≈ 17.4 mM)
Solubility (Propylene carbonate/water (93/7 w/w %), 50° C.): 8.6 mg/mL (≈ 16.6 mM)
Solubility (Propylene carbonate, 10° C.): 55.8 mg/mL (≈ 108 mM)
Solubility (isobutanol/water (~8/92 w/w %), 10 °C, aqueous with cosolvent or surfactant or cyclodextrin, Isobutanol/water (~8/92 w/w %), 10° C., read-out: Solubility): 0.1 mg/mL (≈ 0.193 mM)
Solubility (isobutanol/water (~8/92 w/w %), 25 °C, aqueous with cosolvent or surfactant or cyclodextrin, Isobutanol/water (~8/92 w/w %), 25° C., read-out: Solubility): 0.1 mg/mL (≈ 0.193 mM)
Solubility (isobutanol/water (~8/92 w/w %), 50 °C, aqueous with cosolvent or surfactant or cyclodextrin, Isobutanol/water (~8/92 w/w %), 50° C., read-out: Solubility): 0.1 mg/mL (≈ 0.193 mM)
Solubility (propylene carbonate, 25 °C, organic solvent or mixture, Propylene carbonate, 25° C., read-out: Solubility): 50.1 mg/mL (≈ 96.6 mM)
Solubility (propylene carbonate, 50 °C, organic solvent or mixture, Propylene carbonate, 50° C., read-out: Solubility): 97.3 mg/mL (≈ 188 mM)
